# Measurements as given in PMC9385671 (Nature Communications, 2022).
# “And” between values parts separate entries of the source, which are not always exact repeats. Equal values may be shown once. Read-outs that look alike come from different tables or passages of the source.
# Key:
# FtsZ-YFP-mts = FtsZ-YFP-mts (Escherichia coli, UniProt P0A9A6); type: biochemical; design: made in house; host or cells: E. coli BL21(DE3) for the wild type; conditions: 5 μM protein, 1 mM GTP
# Protocol: Reactions were performed every 20 s for a total time of 120 s. After 30 min of incubation with BIOMOL® GREEN at room temperature, the absorbance of the samples at 620 nm was monitored by TECAN plate reader. The phosphate release concentrations were calculated based on a phosphate standard curve.
# [1] = Side-chain acidity: pKa by 1H NMR titration of free amino acids; type: physicochemical; conditions: for pKa: aqueous KH2PO4 solution titrated with sodium hydroxide; for pKa of the phenolic side-chain: experimental error ±0.15
# Protocol: 10–20 mg of an amino acid, 50 mg of KH2PO4 was dissolved in 15 ml of water and titrated by sodium hydroxide solution to distinct pH values. 500 μl were taken to NMR tubes, 50 μl deuterium oxidewas added and ^1H NMR spectra were measured using W5 pulse tray water suppression at 500 MHz frequency. The chemical shifts were plotted against pH and analyzed using Henderson-Hasselbalch equation to deliver the pKa values. Experimental error ±0.15.
# MjTyrRS variants [2] = target: T1, MjTyrRS variants (Methanocaldococcus jannaschii, UniProt Q57834, D158A/F108Q/H70G/L162N/L65E/Q109C/Y32G); experiment: Intact cell fluorescence assay of HYs incorporation into SUMO-sfGFP; type: cell-based; conditions: for Fluorescence Instensity: Synthetase B48RS; for Incorporation efficiency (sfGFP fluorescence) versus control without HYs additions: mutant B48RS, 1 mM HY, E. coli DH10b
# T1 construct: expressed in transfected cells
# T1 sequence (Q57834 whole entry Y32G/L65E/H70G/F108Q/Q109C/D158A/L162N): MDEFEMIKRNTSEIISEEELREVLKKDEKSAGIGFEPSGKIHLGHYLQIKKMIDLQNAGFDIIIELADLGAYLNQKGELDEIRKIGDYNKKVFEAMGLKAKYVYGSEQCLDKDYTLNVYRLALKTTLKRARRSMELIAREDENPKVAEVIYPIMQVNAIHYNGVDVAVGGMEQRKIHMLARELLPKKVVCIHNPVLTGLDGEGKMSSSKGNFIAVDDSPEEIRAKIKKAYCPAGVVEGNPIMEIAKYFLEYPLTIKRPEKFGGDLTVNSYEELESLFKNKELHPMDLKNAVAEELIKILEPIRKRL
# Protocol: (§1) The intact cell fluorescence assay was performed to approximately compare the Br2Y and Cl2Y incorporation efficiency of screened MjTyrRSs as well as to estimate their promiscuity against other Tyr analogues. Since the gene expression of SUMO-sfGFP was driven by T5 promoter on the one round positive selection plasmid, SUMO-sfGFP can be directly expressed in DH10b strain. […] Next day, an overnight culture was inoculated in a well at a ratio of 1:100 containing 300 μL TB medium supplemented with 50 μg/mL Kan,100 μg/mL Amp, 0.5 mM IPTG as well as 1 mM HYs while the corresponding control lacked the HYs. Cells were grown in 96 well plates (Ibidi) with orbital shaking (2 mm amplitude) for 24 h at 37 °C covered with a gas-permeable foil (Sigma Aldrich, Taufkirchen, Germany). […] After 24 h incubation, the optimal density and fluorescence was measured via top reading after the gas-permeable foil was removed. Each measurement was done in triplicate.
# MjTyrRS variants [3] = experiment: as above; type: cell-based, Methanocaldococcus jannaschii
# Protocol: as §1
# MjTyrRS variants [4] = target: T2, MjTyrRS variants (Methanocaldococcus jannaschii, UniProt Q57834, D158A/F108N/H70G/L162C/L65E/Y32V); experiment: as above; type: cell-based; conditions: Synthetase C64RS
# T2 construct: expressed in transfected cells
# T2 sequence (Q57834 whole entry Y32V/L65E/H70G/F108N/D158A/L162C): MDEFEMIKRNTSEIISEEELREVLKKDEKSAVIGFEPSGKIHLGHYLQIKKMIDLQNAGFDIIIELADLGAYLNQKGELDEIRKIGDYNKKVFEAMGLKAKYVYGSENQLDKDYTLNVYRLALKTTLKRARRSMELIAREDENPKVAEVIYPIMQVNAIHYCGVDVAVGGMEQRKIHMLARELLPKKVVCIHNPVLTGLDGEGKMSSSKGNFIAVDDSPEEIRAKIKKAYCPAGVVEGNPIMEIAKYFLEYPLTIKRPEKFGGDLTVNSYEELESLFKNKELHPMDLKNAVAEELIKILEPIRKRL
# Protocol: as §1
# [5] = experimental error ±0.15, read-out: Ammonium pKa
# [6] = experimental error ±0.15, read-out: pKa of the phenolic side-chain
# Sequence of FtsZ-YFP-mts (P0A9A6 1-366): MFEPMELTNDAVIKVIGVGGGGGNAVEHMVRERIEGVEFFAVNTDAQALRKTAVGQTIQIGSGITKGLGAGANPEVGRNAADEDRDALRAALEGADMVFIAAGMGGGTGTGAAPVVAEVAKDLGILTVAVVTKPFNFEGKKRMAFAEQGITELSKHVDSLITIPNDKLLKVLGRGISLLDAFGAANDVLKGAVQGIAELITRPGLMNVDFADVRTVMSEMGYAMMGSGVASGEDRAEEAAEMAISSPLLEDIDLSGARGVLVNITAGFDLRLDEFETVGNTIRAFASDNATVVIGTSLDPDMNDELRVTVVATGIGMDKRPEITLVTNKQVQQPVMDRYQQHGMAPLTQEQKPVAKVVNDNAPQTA
structure (smiles),measurement,setting,value
"N[C@@H](Cc1cc(Br)c(O)c(Br)c1)C(=O)O [Br2Y, 3,5-dibromo-L-tyrosine]","GTPase activity, Average",FtsZ-YFP-mts; average of two repeats,3.469 pi/min
same,"GTPase activity, single repeats",FtsZ-YFP-mts; repeat 1 and repeat 2,3.2195 pi/min and 3.7182 pi/min
same,pKa,[1]; [5],9.47
same,pKa,[1]; [6],6.5
same,pKa of the phenolic side-chain,[1],6.42 and 6.4
same,Fluorescence Instensity,MjTyrRS variants [2],0.6442 a.u. and 0.7285 a.u. and 0.5778 a.u.
same,Incorporation efficiency (sfGFP fluorescence) versus control without HYs additions,MjTyrRS variants [2],more than 100 fold
same,Fluorescence Instensity,MjTyrRS variants [3]; Synthetase B4RS,0.3153 a.u. and 0.3784 a.u. and 0.2551 a.u.
same,Fluorescence Instensity,MjTyrRS variants [3]; Synthetase B12RS,0.5915 a.u. and 0.6712 a.u. and 0.4959 a.u.
same,Fluorescence Instensity,MjTyrRS variants [3]; Synthetase B37RS,0.6 a.u. and 0.6999 a.u. and 0.4943 a.u.
same,Fluorescence Instensity,MjTyrRS variants [3]; Synthetase B39RS,0.615 a.u. and 0.7381 a.u. and 0.4945 a.u.
same,Fluorescence Instensity,MjTyrRS variants [3]; Synthetase C5RS,0.6366 a.u. and 0.6936 a.u. and 0.5742 a.u.
same,Fluorescence Instensity,MjTyrRS variants [3]; Synthetase C45RS,0.5945 a.u. and 0.6865 a.u. and 0.5035 a.u.
same,Fluorescence Instensity,MjTyrRS variants [3]; Synthetase C61RS,0.4306 a.u. and 0.4884 a.u. and 0.3801 a.u.
same,Fluorescence Instensity,MjTyrRS variants [4],0.543 a.u. and 0.6311 a.u. and 0.4752 a.u.
"N[C@@H](Cc1ccc(O)c(Br)c1)C(=O)O [BrY, 3-bromo-L-tyrosine]",pKa,[1]; [5],9.52
same,pKa,[1]; [6],8.3
same,pKa of the phenolic side-chain,[1],8.29
same,Fluorescence Instensity,MjTyrRS variants [2],0.5063 a.u. and 0.6051 a.u. and 0.4087 a.u.
same,Incorporation efficiency (sfGFP fluorescence) versus control without HYs additions,MjTyrRS variants [2],more than 100 fold
same,Fluorescence Instensity,MjTyrRS variants [3]; Synthetase B4RS,0.06278 a.u. and 0.07689 a.u. and 0.04597 a.u.
same,Fluorescence Instensity,MjTyrRS variants [3]; Synthetase B12RS,0.408 a.u. and 0.4614 a.u. and 0.3514 a.u.
same,Fluorescence Instensity,MjTyrRS variants [3]; Synthetase B37RS,0.2591 a.u. and 0.2929 a.u. and 0.2246 a.u.
same,Fluorescence Instensity,MjTyrRS variants [3]; Synthetase C5RS,0.7502 a.u. and 0.845 a.u. and 0.6301 a.u.
same,Fluorescence Instensity,MjTyrRS variants [3]; Synthetase C45RS,0.7918 a.u. and 0.9328 a.u. and 0.6597 a.u.
same,Fluorescence Instensity,MjTyrRS variants [3]; Synthetase C61RS,0.2377 a.u. and 0.2625 a.u. and 0.2104 a.u.
same,Fluorescence Instensity,MjTyrRS variants [4],0.3329 a.u. and 0.3931 a.u. and 0.2701 a.u.
